Assays:
[1] = target: T1, Cyclin-dependent kinase 1/cyclin B1 (Homo sapiens, UniProt P06493); experiment: Inhibition of recombinant CDK1/GST-fused cyclin B (unknown origin) expressed in baculovirus infected insect Sf9 cells by substrate phosphorylation assay in presence of [33P]-gamma adenosine triphosphate
[2] = target: T2, Cyclin-dependent kinase 2/cyclin E1 (Homo sapiens, UniProt P24941); experiment: Inhibition of recombinant CDK2/GST-fused cyclin E (unknown origin) expressed in baculovirus infected insect Sf9 cells by substrate phosphorylation assay in presence of [33P]-gamma adenosine triphosphate
[3] = target: Vascular endothelial growth factor receptor 2 (Homo sapiens, UniProt P35968); experiment: Inhibition of VEGFR2 (unknown origin)
Sequence of Vascular endothelial growth factor receptor 2 (P35968 whole entry): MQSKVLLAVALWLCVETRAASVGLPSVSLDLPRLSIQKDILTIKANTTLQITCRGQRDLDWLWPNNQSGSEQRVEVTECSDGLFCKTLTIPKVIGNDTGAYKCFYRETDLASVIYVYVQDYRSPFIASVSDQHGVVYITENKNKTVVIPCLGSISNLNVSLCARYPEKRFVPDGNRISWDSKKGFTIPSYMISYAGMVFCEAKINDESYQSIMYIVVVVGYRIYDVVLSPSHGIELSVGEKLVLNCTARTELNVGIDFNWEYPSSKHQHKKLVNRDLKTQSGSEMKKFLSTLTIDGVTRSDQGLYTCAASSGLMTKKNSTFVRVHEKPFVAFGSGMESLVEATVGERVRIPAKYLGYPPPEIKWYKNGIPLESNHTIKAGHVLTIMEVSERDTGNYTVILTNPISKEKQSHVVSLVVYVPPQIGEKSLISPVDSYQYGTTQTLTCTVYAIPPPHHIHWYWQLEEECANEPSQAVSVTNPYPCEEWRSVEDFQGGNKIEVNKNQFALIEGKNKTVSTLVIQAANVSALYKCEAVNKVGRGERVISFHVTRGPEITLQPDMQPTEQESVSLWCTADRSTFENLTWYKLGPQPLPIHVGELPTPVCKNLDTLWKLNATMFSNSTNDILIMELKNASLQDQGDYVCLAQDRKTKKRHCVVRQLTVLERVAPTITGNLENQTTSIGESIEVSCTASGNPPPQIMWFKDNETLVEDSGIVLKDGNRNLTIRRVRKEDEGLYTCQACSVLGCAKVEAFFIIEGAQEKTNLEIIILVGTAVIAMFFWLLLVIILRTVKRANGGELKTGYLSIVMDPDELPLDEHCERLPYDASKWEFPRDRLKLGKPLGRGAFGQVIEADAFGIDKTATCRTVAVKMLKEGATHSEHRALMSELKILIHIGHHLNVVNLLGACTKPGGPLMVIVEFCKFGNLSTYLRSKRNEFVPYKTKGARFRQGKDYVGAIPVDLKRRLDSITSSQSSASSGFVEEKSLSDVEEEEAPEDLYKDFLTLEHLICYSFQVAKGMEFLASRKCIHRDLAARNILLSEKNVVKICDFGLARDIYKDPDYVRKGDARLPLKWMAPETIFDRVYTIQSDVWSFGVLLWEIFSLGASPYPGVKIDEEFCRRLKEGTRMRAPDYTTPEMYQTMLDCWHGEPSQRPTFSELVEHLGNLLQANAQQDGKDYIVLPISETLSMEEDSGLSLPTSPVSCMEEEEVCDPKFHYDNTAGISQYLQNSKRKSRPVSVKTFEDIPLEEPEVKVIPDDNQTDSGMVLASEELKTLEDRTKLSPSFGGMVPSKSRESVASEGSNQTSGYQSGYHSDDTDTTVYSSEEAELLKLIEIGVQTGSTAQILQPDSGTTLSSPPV

MCF7 = experiment: Cytotoxicity against human MCF7 cells assessed as growth inhibition after 96 hrs; format: functional, cell-based; settings: MCF7, 96 h
Carbonic anhydrase 2 = Carbonic anhydrase 2 (Homo sapiens, UniProt P00918); experiment: Inhibition of carbonic anhydrase-2 (unknown origin)
[4] = target: T3, Cyclin-dependent kinase 4/cyclin D1 (Homo sapiens, UniProt P11802); experiment: Inhibition of CDK4/cyclin D1 (unknown origin) expressed in baculovirus infected insect Sf9 cells assessed as inhibition of GST-tagged Rb phosphorylation after 30 mins in presence of [33P]-ATP
T3 sequence (P11802 whole entry): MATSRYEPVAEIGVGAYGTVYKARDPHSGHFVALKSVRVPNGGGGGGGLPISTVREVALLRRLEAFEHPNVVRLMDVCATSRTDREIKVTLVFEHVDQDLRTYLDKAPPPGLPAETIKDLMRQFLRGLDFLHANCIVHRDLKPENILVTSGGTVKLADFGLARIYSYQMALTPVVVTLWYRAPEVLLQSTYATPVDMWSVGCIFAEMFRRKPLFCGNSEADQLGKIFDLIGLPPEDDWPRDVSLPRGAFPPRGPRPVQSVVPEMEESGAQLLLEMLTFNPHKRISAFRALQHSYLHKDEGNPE
T3 sequence (P24385 whole entry, further chain): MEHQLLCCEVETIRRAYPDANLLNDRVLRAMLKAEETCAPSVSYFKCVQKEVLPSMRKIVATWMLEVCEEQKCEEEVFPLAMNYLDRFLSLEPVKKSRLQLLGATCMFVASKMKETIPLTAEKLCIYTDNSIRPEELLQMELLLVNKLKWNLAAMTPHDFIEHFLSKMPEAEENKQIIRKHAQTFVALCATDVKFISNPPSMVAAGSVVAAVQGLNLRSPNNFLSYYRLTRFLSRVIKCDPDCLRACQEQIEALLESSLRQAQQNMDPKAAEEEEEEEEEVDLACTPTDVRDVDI

[5] = target: T2, Cyclin-dependent kinase 2/cyclin E1; experiment: Inhibition of CDK2/cyclin E (unknown origin) expressed in baculovirus infected insect Sf9 cells assessed as inhibition of GST-tagged Rb phosphorylation after 30 mins in presence of [33P]-ATP
HCT-116 = experiment: Cytotoxicity against human HCT116 cells assessed as growth inhibition after 3 days by MTT assay; format: functional, cell-based; settings: HCT-116, 72 h
[6] = Chemical stability of the compound in phosphate buffer assessed as remaining compound at pH 1.2 at 37 degC after 3 hrs; format: physicochemical; settings: read-out: Stability
[7] = target: T4, Cyclin-dependent kinase 2/cyclin A (Homo sapiens, UniProt P24941); experiment: Non-competitive inhibition of human CDK2/cyclinA using PKTPKKAKKL as substrate in presence of ATP; format: protein-complex assay
MDA-MB-231 = experiment: Cytotoxicity against human MDA-MB-231 cells; format: functional, cell-based
[8] = target: T3, Cyclin-dependent kinase 4/cyclin D1; experiment: Inhibition of human CDK4/cyclin D1 expressed in insect cells assessed as phosphorylation of CTRF after 50 mins by microplate scintillation counter
[9] = target: T1, Cyclin-dependent kinase 1/cyclin B1; format: protein-complex assay
Description: Inhibition of human CDK1/cyclin B1 (unknown origin)

[10] = target: T5, Cyclin-dependent kinase 4/6 (Homo sapiens, UniProt P11802+Q00534); experiment: Inhibition of CDK4/6 in human COLO205 cells assessed as inhibition of Rb phosphorylation after 24 hrs by propidium iodide staining-based laser-scanning fluorescence microplate cytometric analysis; format: cell-based; settings: colo 205
T5 sequence (P11802 whole entry, looked up): as the sequence (P11802 whole entry) above
T5 sequence (Q00534 whole entry, looked up): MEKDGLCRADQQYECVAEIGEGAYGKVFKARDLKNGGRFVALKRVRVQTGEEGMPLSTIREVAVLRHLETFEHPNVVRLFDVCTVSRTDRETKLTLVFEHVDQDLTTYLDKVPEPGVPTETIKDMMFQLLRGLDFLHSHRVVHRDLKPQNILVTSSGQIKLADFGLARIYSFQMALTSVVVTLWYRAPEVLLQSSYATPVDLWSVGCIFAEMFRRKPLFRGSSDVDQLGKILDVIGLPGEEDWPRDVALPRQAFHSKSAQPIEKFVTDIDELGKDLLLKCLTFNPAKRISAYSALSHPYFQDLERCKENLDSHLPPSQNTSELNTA

[11] = target: T5, Cyclin-dependent kinase 4/6; experiment: Inhibition of CDK4/6 in human COLO205 cells assessed as maximum cell cycle arrest at G1 phase after 24 hrs by propidium iodide staining-based flow cytometric analysis; settings: COLO 205
MDA-MB-468 = experiment: Antiproliferative activity against Rb-negative human MDA-MB-468 cells assessed as inhibition of [14C]-thymidine incorporation into DNA preincubated for 24 hrs followed by [14C]-thymidine addition measured after 72 hrs by beta plate counting analysis; format: cell-based
Jurkat = experiment: Cytotoxicity against human Jurkat cells assessed as cell viability after 72 hrs by resazurin assay; format: functional, cell-based
[12] = target: T4, Cyclin-dependent kinase 2/cyclin A; experiment: Competitive inhibition of human CDK2/cyclinA using PKTPKKAKKL as substrate in presence of ATP; format: protein-complex assay

T1 sequence (P06493 whole entry, the tested form may be a part): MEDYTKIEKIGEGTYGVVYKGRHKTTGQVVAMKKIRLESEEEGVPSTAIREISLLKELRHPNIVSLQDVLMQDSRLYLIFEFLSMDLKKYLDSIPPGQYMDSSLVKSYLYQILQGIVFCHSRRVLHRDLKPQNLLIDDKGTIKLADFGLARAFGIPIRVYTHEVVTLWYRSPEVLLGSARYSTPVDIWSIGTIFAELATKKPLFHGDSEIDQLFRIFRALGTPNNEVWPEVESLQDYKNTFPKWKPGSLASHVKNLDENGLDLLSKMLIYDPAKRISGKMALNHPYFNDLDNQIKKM
T1 sequence (P14635 whole entry, further chain, the tested form may be a part): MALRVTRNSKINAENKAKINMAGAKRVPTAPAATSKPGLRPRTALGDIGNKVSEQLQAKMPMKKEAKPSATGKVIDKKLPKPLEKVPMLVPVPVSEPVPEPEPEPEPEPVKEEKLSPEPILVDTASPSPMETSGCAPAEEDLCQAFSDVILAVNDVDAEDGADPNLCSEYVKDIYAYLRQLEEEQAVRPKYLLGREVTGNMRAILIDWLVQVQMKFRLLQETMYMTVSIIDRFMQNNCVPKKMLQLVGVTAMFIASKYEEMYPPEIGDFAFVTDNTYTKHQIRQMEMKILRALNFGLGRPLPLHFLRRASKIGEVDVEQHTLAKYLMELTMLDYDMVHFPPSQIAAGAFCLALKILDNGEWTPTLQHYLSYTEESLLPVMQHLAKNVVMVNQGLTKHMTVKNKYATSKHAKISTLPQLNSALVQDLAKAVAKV

CC[S@@](=N)(=O)c1ccc(Nc2ncc(Br)c(N[C@H](C)[C@@H](C)O)n2)cc1
IC50 [1]: 0.003 µM
IC50 [2]: 0.002 µM
IC50 [3]: 0.032 µM
IC50 (MCF7): 0.044 µM
IC50 (Carbonic anhydrase 2): > 10 µM

CC(C)(C)c1cc2c(N/N=C/c3nccs3)ncnc2s1
IC50 [4]: 0.041 µM
IC50 [5]: 0.2 µM
IC50 (HCT-116): 0.419 µM
remaining at 3 h [6]: 79%

CC1=C(C(=O)OC2CCCCC2)C(c2ccc([N+](=O)[O-])cc2)C2=C(CC(C)(C)CC2=O)N1 (stereo not drawn)
IC50 [7]: 71 µM
IC50 (MDA-MB-231): 4 µM

Cc1nc2ccc(-c3ccnc(Nc4ccc(N5CCNCC5)cn4)n3)cc2n1C(C)C
IC50 [8]: 0.002 µM
IC50 [9]: 0.222 µM
IC50 [10]: 0.042 µM
INH [11]: 0.2 µM

CC(Nc1cc(N2CCOCC2)ccc1[N+](=O)[O-])C12CC3CC(CC(C3)C1)C2 (stereo not drawn)
IC50 [7]: 27 µM
IC50 (MDA-MB-231): > 50 µM

CC(N)c1csc(/C=N/Nc2ncnc3sc(C(C)C(C)C)cc23)n1 (stereo not drawn)
IC50 [4]: 0.022 µM
IC50 [5]: 0.88 µM
IC50 (HCT-116): 0.315 µM
remaining at 3 h [6]: 83%

CC(=O)c1c(C)c2cnc(Nc3ccc(N4CCNCC4)cn3)nc2n(C2CCCC2)c1=O [PALBOCICLIB]
IC50 (MDA-MB-468): > 3 µM

C#CCNc1nc(Nc2ccccc2)ncc1Br
IC50 [1]: 0.1 µM
IC50 [2]: 0.1 µM
IC50 (MCF7): 4 µM

Cc1nc2ccc(-c3ccnc(Nc4ccc(CN5CCN(C(C)C)CC5)cn4)n3)cc2n1C(C)C
IC50 [8]: 0.002 µM
IC50 [9]: 1.01 µM
IC50 [10]: 0.089 µM
INH [11]: 2.2 µM

CC(N)c1csc(/C=N/Nc2ncnc3sc(C(C)(C)C)cc23)n1 (stereo not drawn)
IC50 [4]: 0.019 µM
IC50 [5]: 0.83 µM
IC50 (HCT-116): 0.177 µM
remaining at 3 h [6]: 81%

C[C@H](CO)Nc1nc(Nc2ccc(S(N)(=O)=O)cc2)ncc1Br
IC50 [1]: 0.5 µM
IC50 [2]: 0.004 µM
IC50 [3]: 0.034 µM
IC50 (MCF7): 0.266 µM
IC50 (Carbonic anhydrase 2): 0.514 µM

COc1ccc(Nc2nccc(-c3ccc4nc(C)n(C(C)C)c4c3)n2)cc1
IC50 [8]: 0.004 µM
IC50 [9]: 0.004 µM

C[C@@H](O)[C@@H](C)Oc1nc(Nc2ccc(S(=N)(=O)C3CC3)cc2)ncc1C(F)(F)F (stereo partly drawn) [RONICICLIB]
IC50 (MCF7): 0.015 µM

C[C@@H](O)[C@@H](C)Oc1nc(Nc2ccc([S+](N)[O-])cc2)ncc1Br (stereo partly drawn)
IC50 [1]: 0.004 µM
IC50 [2]: 0.009 µM
IC50 [3]: 0.122 µM
IC50 (MCF7): 0.048 µM

CN(C)C/C=C/C(=O)Nc1ccc(C(=O)Nc2cccc(Nc3ncc(Cl)c(-c4c[nH]c5ccccc45)n3)c2)cc1
IC50 (Jurkat): 0.05 µM

N[S+]([O-])c1ccc(/N=N/c2ccc(O)[nH]c2=O)cc1 (stereo not drawn)
IC50 [12]: 45 µM

C[C@@H](O)[C@@H](C)Oc1nc(Nc2ccc([S@](=N)(=O)C3CC3)cc2)ncc1C(F)(F)F [RONICICLIB]
IC50 (Carbonic anhydrase 2): > 10 µM

C[C@@H](O)[C@@H](C)Nc1nc(Nc2ccc([S+](N)[O-])cc2)ncc1Br (stereo partly drawn)
IC50 [1]: 0.01 µM
IC50 [2]: 0.01 µM
IC50 [3]: 0.059 µM
IC50 (MCF7): 0.03 µM
IC50 (Carbonic anhydrase 2): 0.403 µM

From ChEMBL document CHEMBL3603804, “Cyclin dependent kinase (CDK) inhibitors as anticancer drugs” (Bioorg Med Chem Lett, 2015)
